In patent US20220106304A1, “Transcription Factor BRN2 Inhibitory Compounds as Therapeutics and Methods for Their Use” (The University of British Columbia, priority 2018, published 2022):

Key:
[1] = Liver microsome metabolic stability, MLM; type: in vitro ADME; settings: MLM (single value or second of two), 1 μM compound, 0.25 mg/mL protein; for Met Stab % (60 mins HLM/MLM): percent remaining at 60 min, 1 mM NADPH; for half-life at 1 µM: mouse, liver microsomes, pH 7.4, read-out: T1/2 in (mins HLM/MLM)
Experimental: Potassium phosphate buffer (Kphos) was prepared by adding 0.647 g potassium phosphate monobasic (KH2PO4) and 3.527 g potassium phosphate dibasic ([…]) to 400 mL of Milli-Q water. pH of the buffer was adjusted to 7.4 and volume was made up to 500 mL.
Microsomes (20 mg/mL) were diluted in KH2PO4 buffer to prepare a concentration of 0.357 mg/mL.
Stock solutions of BRN2 inhibitors were prepared in DMSO at a concentration of 1 mM
A stock solution of 3.33 mM NADPH (3.33×) was prepared by dissolving appropriate amount of NADPH in KH2PO4 buffer.
Total Incubation volume: 100 μL
Compound concentration: 1 μM
Protein Concentration: 0.25 mg/mL
An 1120 μL aliquot of Kphos buffer (50 mM, pH 7.4) containing liver microsomes (0.357 mg/mL) were added to individual 2 mL tubes (final concentration 0.25 mg/mL). Test compounds (1 mM) and positive controls were directly spiked into respective tubes to prepare a concentration of 1.428 μM (final concentration 1 μM). From the above mix, 70 μL was added to individual wells of 96 well reaction plates and pre-incubated in a 37° C. water bath for 5 min. All the reactions were initiated by adding 30 μL of 3.33 mM NADPH (final concentration 1 mM). Reactions without NADPH and buffer controls (minus NADPH) at 0 min and 60 min were also incubated to rule out non-NADPH metabolism or chemical instability in the incubation buffer. All reactions were terminated using 100 μL of ice-cold acetonitrile containing internal standard at 0, 5, 15, 30 and 60 min. The plates were centrifuged at 4000 RPM for 15 min and 100 μL aliquots were submitted for analysis by LC-MS/MS.
Samples were monitored for parent compounds disappearance in MRM mode using LC-MS/MS.
The percent remaining of test compounds and positive control in each sample was determined by considering peak area ratio in the 0 minute sample as 100%. The Half-life of compounds in microsomes is calculated by formula:
Half-life (t½) (min)=0.693/k, where k is gradient of line determined from plot of peak area ratio (compound peak area/internal standard peak area) against time.
In vitro intrinsic clearance (CL'int) (units in mL/min/kg) was calculated using the formula.
[formula] • For liver microsomes, scaling factor used was 45 mg microsomal protein per gm liver. • Indicates liver weight (gm) which varies species wise. For mice the liver weights are 90 gm.
Where data is not available “na” is inserted.

BRN2 = molecular target: T1, BRN2 (Homo sapiens, UniProt P20265); assay: cell-based; settings: for inhibition at 10 µM: read-out: % BRN2 Inhibition (10 μM), 10 μM compound, 24 hours, 42D^ENZR cells stably expressing BRN2-luciferase reporter; for inhibition at 10 µM / inhibition at 30 µM / % BRN2 Inhibition (10 μM) / % BRN2 Inhibition (30 μM): negative = activation; for inhibition at 30 µM: read-out: % BRN2 Inhibition (30 μM), 30 μM compound, 24 hours, 42D^ENZR cells stably expressing BRN2-luciferase reporter; for % BRN2 Inhibition (10 μM): 10 μM compound; for % BRN2 Inhibition (10 μM) / % BRN2 Inhibition (30 μM): 24 hours, 42D^ENZR cells stably expressing BRN2-luciferase reporter; for % BRN2 Inhibition (30 μM): 30 μM compound
T1 sequence (P20265 1-443): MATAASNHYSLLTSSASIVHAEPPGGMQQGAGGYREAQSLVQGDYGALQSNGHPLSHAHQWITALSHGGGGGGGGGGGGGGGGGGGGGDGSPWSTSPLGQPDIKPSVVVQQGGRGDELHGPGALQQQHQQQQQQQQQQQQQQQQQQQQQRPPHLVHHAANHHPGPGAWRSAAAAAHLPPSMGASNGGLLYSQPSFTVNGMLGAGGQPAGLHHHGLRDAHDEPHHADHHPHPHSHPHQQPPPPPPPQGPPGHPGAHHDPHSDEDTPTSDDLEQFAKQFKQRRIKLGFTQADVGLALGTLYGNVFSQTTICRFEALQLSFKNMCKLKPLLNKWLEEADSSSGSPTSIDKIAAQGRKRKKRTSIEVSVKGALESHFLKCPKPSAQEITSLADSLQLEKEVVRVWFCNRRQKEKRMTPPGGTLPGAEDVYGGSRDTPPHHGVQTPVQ
Source text: Decreased expression of luciferase protein is validated via western blot to confirm downregulation and avoid false positive molecules that inhibit luciferase protein activity and not BRN2-drive luciferase expression. Molecules are prioritized by their inhibition potency to measure direct interaction with BRN2 in Step 2.
In TABLES 1 and 2, when a single value is mentioned in columns Met Stab % and T½, it refers to compound's stability in MLM and when two values are given they represent HLM/MLM. There is a distinction in TABLES 1 and 2 difference between “Active” and “Specific” or “Specificity”. Compounds are first tested to quantify inhibition of BRN2 transcriptional activity in a luciferase assay to determine “Activity” at […] and 30 μM concentrations. […] Where data is not available “na” is inserted. Where data has yet to be calculated the notation “nc” is used.

SMILES | Met Stab % (60 mins HLM/MLM) [1] [%] | half-life at 1 µM [1] [min] | inhibition at 10 µM (BRN2) [%] | inhibition at 30 µM (BRN2) [%] | cell death (30 μM) (BRN2; 30 μM, cell death = severe toxicity at a low dose) | % BRN2 Inhibition (10 μM) (BRN2) | % BRN2 Inhibition (30 μM) (BRN2)
FC(F)(F)c1ccc2cc(-c3csc(N4CCCC4)n3)oc2c1 [VPC-18-72, 2-(pyrrolidin-1-yl)-4-(6-(trifluoromethyl)benzofuran-2-yl)thiazole] | 8 | 18 | 45.9 | 62.4 | – | – | –
FC(F)(F)c1ccc2cc(-c3coc(-c4ccco4)n3)oc2c1 [VPC-18-120] | 6 | 13 | 88.9 | 88.8 | – | – | –
FC(F)(F)c1ccc2cc(-c3csc(-c4cc[nH]c4)n3)oc2c1 [VPC-18-111] | 38 | 48 | 96.2 | 98.6 | – | – | –
Clc1ccc2cc(-c3csc(C4CCCO4)n3)oc2c1 (stereo not drawn) [VPC-18-114] | 14 | 25 | 92 | 95 | – | – | –
FC(F)(F)c1ccc2cc(-c3csc(N4CCOCC4)n3)oc2c1 [VPC-18-78, 4-(4-(6-(trifluoromethyl)benzofuran-2-yl)thiazol-2-yl)morpholine] | 25 | 30 | 43.6 | 79.6 | – | – | –
FC(F)(F)c1ccc2cc(-c3csc(NCC4CC4)n3)oc2c1 [VPC-18-86] | 5 | 13 | 32 | 92 | – | – | –
Cc1c(-c2ccc(-c3ccccc3)o2)oc2ccccc12 [VPC-18-74, 3-methyl-2-(5-phenylfuran-2-yl)benzofuran] | 2 | 11 | 96.7 | 99 | – | – | –
c1coc(-c2nc(-c3cc4ncccc4o3)cs2)c1 [VPC-18-75, 2-(2-(furan-2-yl)thiazol-4-yl)furo[3,2-b]pyridine] | 0 | – | 71.9 | 91.9 | – | – | –
Clc1ccc2cc(-c3cccc(-c4ccc[nH]4)c3)oc2c1 [VPC-18-153] | 2 | 11 | – | – | – | – | –
FC(F)(F)c1ccc2nc(-c3csc(C4=CCOCC4)n3)oc2c1 [VPC-18-77] | 24 | 29 | 11.3 | 63.4 | – | – | –
Clc1ccc2cc(-c3cncc(-c4ccc[nH]4)n3)oc2c1 [VPC-18-130] | 1 | 9 | – | – | – | – | –
FC(F)(F)c1ccc2cc(-c3csc(-c4cocn4)n3)oc2c1 [VPC-18-106] | 7 | 16 | 90.6 | 90 | – | – | –
Clc1ccc2cc(-c3csc(N4CC5CC4CO5)n3)oc2c1 (stereo not drawn) [VPC-18-91, 5-(4-(6-chlorobenzofuran-2-yl)thiazol-2-yl)-2-oxa-5-azabicyclo[2.2.1]heptane] | 2 | 11 | 70 | 96 | – | – | –
Cl.Clc1ccc2cc(-c3csc(C4=CCNCC4)n3)oc2c1 [VPC-18-95, 4-(6-chlorobenzofuran-2-yl)-2-(1,2,3,6-tetrahydropyridin-4-yl)thiazole hydrochloride] | – | – | 79.8 | 100 | cell death | – | –
Cn1c(-c2ccc(-c3cccnc3)o2)nc2ccc(C(F)(F)F)cc21 [VPC-18-64] | – | – | -30 | -59 | – | – | –
Cc1c(-c2csc(-c3ccc(Br)cc3F)n2)oc2cc(F)ccc12 [VPC-18-57, 2-(4-Bromo-2-fluorophenyl)-4-(6-fluoro-3-methylbenzofuran-2-yl)thiazole] | – | – | – | – | – | INACTIVE | INACTIVE

SMILES | Met Stab % (60 mins HLM/MLM) [1] [%] | half-life at 1 µM [1] [min] | inhibition at 10 µM (BRN2) [%] | inhibition at 30 µM (BRN2) [%] | cell death (30 μM) (BRN2; 30 μM, cell death = severe toxicity at a low dose) | % BRN2 Inhibition (10 μM) (BRN2) | % BRN2 Inhibition (30 μM) (BRN2)
Cn1c(-c2ccc(-c3ccccc3)o2)nc2ccc(C(F)(F)F)cc21 [VPC-18-61] | – | – | -97 | -92 | – | – | –
Cn1c(-c2ccc(-c3cncnc3)o2)nc2ccccc21 [VPC-18-43, 1-Methyl-2-(5-(pyrimidin-5-yl)furan-2-yl)-1H-benzo[d]imidazole] | – | – | -124 | -83 | – | – | –
c1ccc2oc(-c3csc(N4CC5CC4CO5)n3)cc2c1 (stereo not drawn) [VPC-18-38, 5-(4-(Benzofuran-2-yl)thiazol-2-yl)-2-oxa-5-azabicyclo[2.2.1]heptane] | – | – | -51.2 | 67 | – | – | –
O=[N+]([O-])c1ccc2nc(-c3ccc(-c4ccc(Br)cc4Cl)o3)[nH]c2c1 [VPC-18-40, 2-(5-(4-Bromo-2-chlorophenyl)furan-2-yl)-6-nitro-1H-benzo[d]imidazole] | – | – | -32.7 | -84.1 | – | – | –
Cn1c(-c2ccc(-c3ccc(Br)cc3Cl)o2)nc2ccccc21 [VPC-18-60] | – | – | 13 | -37 | – | – | –
Cn1c(-c2csc(-c3ccccc3)n2)nc2ccc(Cl)cc21 [VPC-18-37, 4-(6-Chloro-1-methyl-1H-benzo[d]imidazol-2-yl)-2-phenylthiazole] | – | – | -14.5 | -58.7 | – | – | –
Clc1cc(Br)ccc1-c1nc(-c2cc3ccccc3o2)cs1 [VPC-18-59, 4-(Benzofuran-2-yl)-2-(4-bromo-2-chlorophenyl)thiazole] | – | – | – | – | – | INACTIVE | INACTIVE
Cn1c(-c2ccc(N3CCC(F)(F)CC3)o2)nc2ccc(C(F)(F)F)cc21 [VPC-18-79] | – | – | -12.3 | 2.4 | – | – | –
O=[N+]([O-])c1ccc(-c2nc(-c3cc4ccc(F)cc4o3)cs2)o1 [VPC-18-54, 4-(6-Fluorobenzofuran-2-yl)-2-(5-nitrofuran-2-yl)thiazole] | – | – | -60 | -45 | – | – | –
O=[N+]([O-])c1ccc2cc(-c3csc(-c4ccco4)n3)oc2c1 [VPC-18-52, 2-(Furan-2-yl)-4-(6-nitrobenzofuran-2-yl)thiazole] | – | – | -15.8 | -46 | – | – | –
CN1CCC(c2ccc(-c3nc4ccccc4n3C)o2)CC1 [VPC-18-68] | – | – | 11 | 14 | – | – | –
Fc1c(Cl)ccc2cc(-c3csc(-c4ccc[nH]4)n3)oc12 [VPC-18-166] | 1 | 10 | – | – | – | – | –
O=[N+]([O-])c1ccc(-c2nc(-c3cc4ccccc4o3)cs2)cc1 [VPC-18-44, 4-(Benzofuran-2-yl)-2-(4-nitrophenyl)thiazole] | – | – | -45 | -104 | – | – | –
Cn1c(-c2ccc(-c3ccccc3)o2)nc2ccc([N+](=O)[O-])cc21 [VPC-18-30, 1-Methyl-6-nitro-2-(5-phenylfuran-2-yl)-1H-benzo[d]imidazole] | – | – | 2.63 | 17.4 | – | – | –
Clc1ccc2cc(-c3csc(-c4nccs4)n3)oc2c1 [VPC-18-165] | 6 | 16 | – | – | – | – | –
